{"source": "patent US6218167A", "about": "“Stable biocatalysts for ester hydrolysis” (ThermoGen, Inc., priority 1998, dated 2001)", "key": {"[1]": {"molecular_target": "T1, Thermus sp. T351 esterase E101, SEQ ID NO.:8 (Thermus filiformis, UniProt A0A0A2WSC9)", "T1 construct": "T351; native about 135 kD", "T1 sequence (A0A0A2WSC9 entry or part of it A175T/N178S/T194S/A197P/K279Q/P281S)": "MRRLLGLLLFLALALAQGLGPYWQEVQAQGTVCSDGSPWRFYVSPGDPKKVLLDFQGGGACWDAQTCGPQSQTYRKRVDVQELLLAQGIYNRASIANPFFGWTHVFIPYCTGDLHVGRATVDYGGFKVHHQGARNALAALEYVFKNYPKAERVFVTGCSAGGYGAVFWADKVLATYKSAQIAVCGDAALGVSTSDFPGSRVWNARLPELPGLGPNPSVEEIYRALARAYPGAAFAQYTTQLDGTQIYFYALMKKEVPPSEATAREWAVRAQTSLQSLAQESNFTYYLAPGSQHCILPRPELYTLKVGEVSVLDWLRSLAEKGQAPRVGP", "experiment": "biochemical", "format": "biochemical", "from_the_text": "The specific activity of the enzyme is ten fold greater than observed for E100 with 4-methyl-umbelliferyl butyrate (MUB) as the substrate. E101 is inhibited by PMSF but is insensitive to metal ions or metal ion chelators. […] Table 5 outlines the inhibitory effect of various substances on E101 activity.\nReaction conditions are those described in the general experimental above"}, "[2]": {"tested_on": "Thermus sp. T351 esterase E100", "experiment": "Inhibition by reaction components of p-nitrophenylproprionate hydrolysis by E100", "format": "biochemical", "settings": "no concentration stated", "method": "Esterase activity is measured by monitoring the hydrolysis of p-nitrophenylproprionate (pNP), or in some cases MUB. Each substrate is dissolved in acetonitrile and added to the reaction mixture (100 μM final concentration) which contain 50 mM Tris HCl pH 8.5 adjusted for temperature dependent pH variation. Reactions are thermally equilibrated at 37° C. for 5 minutes prior to initiation of the reaction by addition of 10 μL of enzyme sample, while control reactions substituted equivalent amounts of BSA. The reaction is monitored spectrophotometrically at 405 nm ε=17 mM^-1 cm^-1 for pNP and 360 nm ε=7.9 mM^-1 cm^-1 for MUB.\nThe rates of enzyme catalyzed hydrolysis are corrected for the spontaneous hydrolysis of the substrate. Protein concentrations are determined by either the absorbance at 280 nm or by Lowery assay. Crude activity is determined by a calorimetric assay based on the hydrolysis of 5-bromo-4-chloro-3-indoyl esters suspended in a 0.7% agar matrix on microtiter plates. A 0.1 mg/ml solution of the indolyl derivative is dissolved in a minimal volume of acetonitrile and added to a warm solution of 0.7% agar containing 0.1M phosphate buffer pH 7.5. 10 μL of this solution is distributed to microtiter plates which, when cooled, could be used with as much as 100 μL of enzyme sample and incubated at temperatures from ambient to >65° C. […]"}}}
{"smiles": "OCCS", "note": "[BME, β-mercaptoethanol]", "values": [{"measurement": "activity at 10000 µM", "setting": "[1]; read-out: Relative Rate", "result": 96, "unit": "%"}]}
{"smiles": "OC(CS)C(O)CS", "note": "(stereo not drawn) [DTT]", "values": [{"measurement": "activity at 1000 µM", "setting": "[1]; read-out: Relative Rate", "result": 98, "unit": "%"}]}
{"smiles": "O=C(O)CN(CCN(CC(=O)O)CC(=O)O)CC(=O)O", "note": "[EDTA]", "values": [{"measurement": "activity at 1000 µM", "setting": "[1]; read-out: Relative Rate", "result": 93, "unit": "%"}]}
{"smiles": "O=S(=O)(F)Cc1ccccc1", "note": "[PMSF]", "values": [{"measurement": "Relative Rate", "setting": "[1]; additive 0.1 mM, None = 100%, substrate p-nitrophenylproprionate", "result": 0, "unit": "%"}, {"measurement": "Inhibition of E101 (in words)", "setting": "[1]; no concentration stated", "result": "inhibited"}]}
{"smiles": "Cc1ccc(S(=O)(=O)F)cc1", "note": "[tosyl fluoride]", "values": [{"measurement": "Inhibition of E100 (in words)", "setting": "[2]", "result": "effectively inhibited"}]}
